Laboratory results: patent US12123028B2, “Viral inactivation methods for continuous manufacturing of antibodies” (Bayer HealthCare LLC, priority 2018, dated 2024)

Columns and labels:
[1] = system: X-MuLV; assay: Dual X-MuLV inactivation by low pH and detergent in mAb protein A eluate, remaining infectivity by TCID50 assay on PG-4 cells; format: cell-based, Xenotropic Murine Leukemia Virus; conditions: for required inactivation time compared with 0.2% Tween 80 / time required for X-MuLV inactivation: 16° C.; for treatment time to completely inactivate X-MuLV: 18° C.
Description: […] The pH adjusted eluates were then filtered by a 0.22 um filter. Various volumes of 5% detergent stock solution were then added to the filtered protein A eluates. The low pH protein A eluates containing Mega-10, Tween 80 or Tween 20 were pre-incubated at a 16° C. water bath prior to spiking with X-MuLV at a 1:20 ratio. After a thorough mixing, an aliquot of sample was removed immediately and neutralized with 1 M Tris buffer to stop low pH viral inactivation, then immediately quenched with diluent at 1:12 for Mega-10 or at 1:100 for Tween 20 and Tween 80 to stop viral inactivation by the detergent. The collected sample was designated as a time-zero reference. The remaining spiked eluate was returned to the water bath and the samples were collected at indicated times to evaluate the viral inactivation kinetics. The remaining X-MuLV infectivity in the samples post-inactivation treatment was determined by a TCID50 assay that is an endpoint dilution assay to quantify the amount of virus required to produce a cytopathic effect in 50% of inoculated tissue culture cells. Virus titers were estimated using the Spearman-Karber method and reported as TCID50/mL with a calculated 95% confidence interval (CI). Briefly, a sufficient number of 96-well plates with PG-4 (feline S^+L^−, ATCC#CRL-2032) cells were prepared the day before starting the viral inactivation experiments and incubated overnight in a 37° C. humidified CO2 incubator. A set of ten 3.2 fold dilution of the diluted positive control (1:100) and viral inactivated samples were prepared in a dilution block. Each set of the 11 serial dilutions of the samples were inoculated correspondingly onto wells (100 μL per well) of the first 11 columns in a 96-well plate that had been pre-seeded with PG-4 cells. The 12th column in the same plate was inoculated with the corresponding diluent to serve as non-virus negative control. The positive control was prepared by spiking the filtered neutralized protein A eluate with X-MuLV at a 1:20 ratio. The inoculated plates were then incubated in a 37° C. humidified CO2 incubator for approximate 2 hours. A volume of 100 uL of 2× assay medium (92% McCoy's 5A medium, 4% FBS, 2% Penicillin/Streptomycin, 2% L-Glutamine) was added to each well of the plates at the end of incubation. The plates were then returned to the same incubator, and continued incubation for 6 days. Each well of the plates were scored under a microscope for the presence of cytopathic effect (CPE) and the results were recorded in a scoring sheet. Virus titers were then estimated using the Spearman-Karber method and reported as TCID50/mL with a calculated 95% confidence interval (CI).

[2] = system: retroviruses; conditions: Triton X-100 ≥0.5%; hold time ≥60 minutes; 15-25° C.; pH 6.0-8.0; clarified, cell-free intermediate of mAb or IgG Fc fusion protein; cited from earlier work

| Compound | time needed for inactivating X-MuLV to the level below the detection limit ([1]; dual treatment: mAb2 protein A eluate pH 4.05 with 0.5% Tween 80, 16° C. (120 minutes by pH 4.0 alone at 18° C.)) [min] | incubation time needed for inactivation of X-MuLV to the level below the detection limit ([1]; dual treatment: mAb3 (IgG2) protein A eluate pH 3.97 with 0.5% Tween 80, 16° C. (120 minutes by low pH alone)) [min] | required inactivation time ([1]; dual treatment: mAb3 protein A eluate pH 3.99 with 0.2% Tween 80, 16° C. (120 minutes without detergent)) [min] | required inactivation time compared with 0.2% Tween 80 ([1]; dual treatment: mAb3 protein A eluate pH 3.99 with 0.3% Tween 80) | required inactivation time compared with 0.2% Tween 80 ([1]; dual treatment: mAb3 protein A eluate pH 3.99 with 0.5% Tween 80) | time required for X-MuLV inactivation ([1]; mAb3 protein A eluate containing 0.1% Tween 80 at pH 3.7) [min] | time required for X-MuLV inactivation ([1]; mAb3 protein A eluate containing 0.1% Tween 80 at pH 3.8) [min] | time required for X-MuLV inactivation ([1]; mAb3 protein A eluate containing 0.1% Tween 80 at pH 3.9) [min] | time required for X-MuLV inactivation ([1]; mAb3 protein A eluate containing 0.1% Tween 80 at pH 4.0) [min] | treatment time to completely inactivate X-MuLV ([1]; mAb4 protein A eluate at pH 4.11 containing 1% Tween 80) [h] | treatment time to completely inactivate X-MuLV ([1]; mAb4 protein A eluate at pH 4.20 containing 1% Tween 80) [h] | treatment time to completely inactivate X-MuLV ([1]; mAb4 protein A eluate at pH 4.30 containing 1% Tween 80) [h] | LRF of retroviral inactivation [2] |
| --- | --- | --- | --- | --- | --- | --- | --- | --- | --- | --- | --- | --- | --- |
| CCCCCCCC/C=C\CCCCCCCC(=O)OCCOCC(OCCO)C1OCC(OCCO)C1OCCO (stereo not shown) [Tween 80] | 10 | 5 | 5 | no further reducing of time | no further reducing of time | 0 | 1 | 2.5 | 10 | 1 | 3 | 4 | – |
| Triton X-100 | – | – | – | – | – | – | – | – | – | – | – | – | ≥ 4.0 |
